The values that follow come from patent US9980943B2, “Methods of treating muscular dystrophy” (BOARD OF REGENTS OF THE NEVADA SYSTEM OF HIGHER EDUCATION, …, priority 2013, dated 2018).

Read-outs that look alike come from different tables or passages of the source.

The assay relates to α7 integrin (LacZ reporter in α7LacZ+/− myoblasts). The assay can be described thus: qHTS of the LOPAC library and MLSMR (online screen, α7LacZ+/− myoblasts). The following applies: for activation at 0.307 µM / activation at 1.53 µM / activation at 7.66 µM / activation at 38.3 µM / Emax / EC50: Mus musculus, Myoblast; for activation at 0.307 µM: read-out: Activity at 0.307 uM [%] **; for activation at 1.53 µM: read-out: Activity at 1.530 uM [%] **; for activation at 7.66 µM: read-out: Activity at 7.660 uM [%] **; for activation at 38.3 µM: read-out: Activity at 38.30uM [%] **; for EC50: read-out: Fit LogAC50 (converted).

Setting [1] is: 48 h, read-out: Fit Infinite Activity [%].

Consider `Cc1ccc(-c2csnn2)cc1` [Compound 170], for which the EC50 is 10 µM. For the same compound, under “48 h”, the activation at 0.307 µM was 2.36%, the activation at 1.53 µM amounted to 5.33%, the activation at 7.66 µM was found to be 22.2% and the activation at 38.3 µM stood at 87.6%. The Emax under setting [1] is 87.8%. For the same compound, the Emax (read-out: Max Response [%]) is 87.6%.
Consider `C/N=C(\S)N1CCC(NC(=O)C(Cc2ccc(F)cc2)NC(C)=O)CC1` (centres unmarked) [Compound 82], for which the EC50 was 3.16 µM. Moreover, where the note is “48 h”, the activation at 0.307 µM was 0%, the activation at 1.53 µM came out at 23.1%, the activation at 7.66 µM came to 63.7% and the activation at 38.3 µM was 84.7%. Further, the Emax under setting [1] was determined as 90%. Moreover, the Emax (read-out: Max Response [%]) was 84.7%.
Regarding `O=C(COC(=O)Cn1cnc2ccccc21)Nc1cccc([N+](=O)[O-])c1` [Compound 119], the EC50 is 11.2 µM. In addition, for the setting “48 h”, the activation at 0.307 µM is -17.1%, the activation at 1.53 µM is -14.7%, the activation at 7.66 µM was found to be 0.628% and the activation at 38.3 µM stood at 112%. Further, the Emax under setting [1] is 112%. In addition, the Emax (read-out: Max Response [%]) is 112%.
Regarding `COC(=O)C1=NNC2(C)C(=O)N(c3ccc(C)cc3)C(=O)C12` (centres unmarked) [Compound 177], the EC50 was 10 µM. For the same compound, under “48 h”, the activation at 0.307 µM worked out at 1.31%, the activation at 1.53 µM stood at 0.295%, the activation at 7.66 µM worked out at 16.2% and the activation at 38.3 µM turned out to be 71.1%. Moreover, the Emax under setting [1] was 71.5%. For the setting “read-out: Max Response [%]”, the Emax amounted to 71.1%.
`Cc1cc(NC(=O)CCC(=O)N(Cc2cccnc2)C(C(=O)NC(C)(C)C)c2ccccc2Cl)no1` (centres unmarked) [Compound 29]: the EC50 is 3.98 µM. For the same compound, under “48 h”, the activation at 0.307 µM is -23.8%, the activation at 1.53 µM is -13.5%, the activation at 7.66 µM amounted to 36% and the activation at 38.3 µM turned out to be 54.9%. For the same compound, the Emax under setting [1] worked out at 55.7%.
In the case of `CCOC(=O)C1=C(NC(=O)c2ccc(OC)c(S(=O)(=O)N3CCCCC3C)c2)Nc2ccccc2N=C1CC` (centres unmarked) [Compound 45], the Score was found to be 47 and the EC50 was 14.1 µM. Further, where the note is “48 h”, the activation at 0.307 µM is -16.6%, the activation at 1.53 µM amounted to 0.0514%, the activation at 7.66 µM worked out at 18.6% and the activation at 38.3 µM is 414%. Under setting [1], the Emax is 420%. Besides, the Emax (read-out: Max Response [%]) worked out at 414%.
Consider `O=C(Nc1ccc(S(=O)(=O)Nc2nccs2)cc1)c1ccccc1OC(F)F` [Compound 137], for which the EC50 was 10 µM. Moreover, where the note is “48 h”, the activation at 0.307 µM was -19.2%, the activation at 1.53 µM was -19.4%, the activation at 7.66 µM is -1.67% and the activation at 38.3 µM is 61.8%. Besides, the Emax under setting [1] came out at 61.7%. For the same compound, the Emax (read-out: Max Response [%]) was 61.8%.
On to `CN(CC(=O)Nc1cccc(F)c1)C(=O)c1ccc(-c2ccc(Cl)cc2)o1` [Compound 90], for which the EC50 was 11.2 µM. In addition, under “48 h”, the activation at 0.307 µM was determined as 2.83%, the activation at 1.53 µM is 8.12%, the activation at 7.66 µM amounted to 27.2% and the activation at 38.3 µM is 146%. Also, the Emax under setting [1] stood at 146%. In addition, the Emax (read-out: Max Response [%]) amounted to 146%.
Turning to `CCOc1ccc2ccccc2c1C1NC(=O)N(C)C(C)=C1C(=O)OCCOC` (centres unmarked) [Compound 76], the EC50 was 6.31 µM. Further, under “48 h”, the activation at 0.307 µM was -5.81%, the activation at 1.53 µM amounted to 5.65%, the activation at 7.66 µM was found to be 55.1% and the activation at 38.3 µM came to 97%. Under setting [1], the Emax was found to be 106%. In addition, the Emax (read-out: Max Response [%]) amounted to 97%.
Consider `O=C(NC1CCCC1)c1ccc(CS(=O)(=O)Cc2ccccc2F)o1` [Compound 7], for which the EC50 was 4.47 µM. Moreover, for the setting “48 h”, the activation at 0.307 µM was determined as 13.4%, the activation at 1.53 µM was 25.3%, the activation at 7.66 µM came out at 80.6% and the activation at 38.3 µM is 105%. The Emax under setting [1] turned out to be 107%.
In the case of `CC(NC(=O)c1cn(C)c2ccc(S(=O)(=O)N3CCCC3)cc2c1=O)c1ccccc1` (centres unmarked) [Compound 28], the EC50 was 2.82 µM. For the setting “48 h”, the activation at 0.307 µM is -36%, the activation at 1.53 µM was -20.6%, the activation at 7.66 µM is 48.9% and the activation at 38.3 µM was 54.7%. Further, under setting [1], the Emax is 55.3%.
In the case of `COCCn1c(=N)c(S(=O)(=O)c2ccc(Br)cc2)cc2c(=O)n3ccccc3nc21` [Compound 96], the EC50 was 4.47 µM. Further, for the setting “48 h”, the activation at 0.307 µM is -7.89%, the activation at 1.53 µM came out at 1.1%, the activation at 7.66 µM came out at 54.5% and the activation at 38.3 µM turned out to be 73.2%. In addition, the Emax under setting [1] amounted to 75%. In addition, the Emax (read-out: Max Response [%]) was 73.2%.
On to `Oc1c(Br)cc(Br)cc1CNc1cccc2cccnc12` [Compound 110], for which the EC50 was 12.6 µM. In addition, under “48 h”, the activation at 0.307 µM was -18.9%, the activation at 1.53 µM was -17.9%, the activation at 7.66 µM was 0% and the activation at 38.3 µM came to 161%. Under setting [1], the Emax is 163%. In addition, for the setting “read-out: Max Response [%]”, the Emax came out at 161%. Moreover, the Score (Table 8 Compound data) worked out at 43.
In the case of `COc1cccc(NC(=O)c2ccc3c(c2)CCCC3)c1` [Compound 162], where the note is “48 h”, the activation at 0.307 µM is -31.8%, the activation at 1.53 µM is -27.5%, the activation at 7.66 µM came to 26.3% and the activation at 38.3 µM came out at 54.3%. Moreover, the Emax under setting [1] amounted to 55.3%. The Emax (read-out: Max Response [%]) is 54.3%.
In the case of `CC(C)CC1NC(=O)N(CC(=O)N2c3ccccc3NC(=O)C2(C)C)C1=O` (centres unmarked) [Compound 21], the EC50 was 5.62 µM. In addition, under “48 h”, the activation at 0.307 µM came to 2.86%, the activation at 1.53 µM amounted to 0%, the activation at 7.66 µM was 75.6% and the activation at 38.3 µM was 93.3%. The Emax under setting [1] was 93.5%.
Consider `COc1ccc(Nc2ncnc3ccc(Br)cc23)cc1OC` [Compound 75], for which the EC50 is 3.98 µM. Also, where the note is “48 h”, the activation at 0.307 µM amounted to 28.1%, the activation at 1.53 µM turned out to be 40%, the activation at 7.66 µM stood at 79.7% and the activation at 38.3 µM was determined as 95.9%. Besides, the Emax under setting [1] turned out to be 98.4%. Under “read-out: Max Response [%]”, the Emax was 95.9%.
In the case of `COc1cc(NC(=O)C2C3C=CC(C3)C2C(=O)O)ccc1NC(=O)c1ccccc1` (centres unmarked) [Compound 142], for the setting “48 h”, the activation at 0.307 µM is -17.1%, the activation at 1.53 µM is -18.7%, the activation at 7.66 µM was 16.8% and the activation at 38.3 µM worked out at 68.9%. Under setting [1], the Emax worked out at 71.2%. In addition, the Emax (read-out: Max Response [%]) was found to be 68.9%.
With `CCCC(=O)Nc1ccccc1NC(=O)c1ccc(OCC)cc1` [Compound 206], for the setting “48 h”, the activation at 0.307 µM is 12.1%, the activation at 1.53 µM came to 15.3%, the activation at 7.66 µM came to 28.5% and the activation at 38.3 µM is 91.2%. For the same compound, under setting [1], the Emax was 91.9%. For the same compound, the Emax (read-out: Max Response [%]) worked out at 91.2%.
Turning to `N#Cc1ccc(OCC(O)CS(=O)(=O)c2ccccc2)cc1` (centres unmarked) [Compound 195], the EC50 was 10 µM. For the same compound, under “48 h”, the activation at 0.307 µM is -7.88%, the activation at 1.53 µM is -12%, the activation at 7.66 µM amounted to 15.3% and the activation at 38.3 µM was determined as 89.4%. For the same compound, the Emax under setting [1] came out at 89.6%. For the same compound, the Emax (read-out: Max Response [%]) amounted to 89.4%.
